Data on six compounds can be found in patent US9314383B2, “Absorptive article” (UNICHARM CORPORATION, priority 2012, dated 2016).

Where only a bound is given, the exact number is not on record here.

The text on this data set: The term “solubility” used herein in regard to water solubility includes cases where the sample completely dissolves in deionized water to form a homogeneous mixture, and cases where the sample is completely emulsified. Here, “completely” means that no mass of the sample remains in the deionized water.
Consider `CCCCCCCCCCCC(=O)OCC(O)CO` (stereo not drawn) [90-L2 Lauric acid monoglyceride, lauric acid monoglyceride], for which the “Water solubility (g)” value is listed as 20< g.
Same read-out and setting: the figure for `CC(C)CCCCCCCCCCCCCCCOC(=O)CC(O)C(=O)OCCCCCCCCCCCCCCCC(C)C` (stereo not drawn) [Diisostearyl malate] is 20< g.
With `CCCCC(CC)C(=O)OCC(C)(C)COC(=O)C(CC)CCCC` (stereo not drawn) [H-208BRS, Neopentyl glycol di(2-ethylhexanoate)], the “Water solubility” value is recorded as below 0.05 g.
Still for that read-out and setting: in the case of `CCCCC(CC)C(=O)OCC(COC(=O)C(CC)CCCC)OC(=O)C(CC)CCCC` (stereo not drawn) [PANACET 800B] it was below 0.05 g; in that of `CCCCCCCC(=O)OCC(COC(=O)CCCCCCC)OC(=O)CCCCCCC` [PANACET 800], below 0.05 g.
The same measure, in the same setting: in the case of `CCCCOC(=O)CC(CC(=O)OCCCC)(OC(C)=O)C(=O)OCCCC` [Tributyl O-acetylcitrate] it was below 0.05 g.
